Experimental data as given in the NIST ThermoML archive (doi:10.1021/je5008372).
± gives the expanded uncertainty stated by the source.

Legend:
[1] = mn = molality of the nth substance listed, in mol/kg; conditions: 86.8 kPa, Liquid; for viscosity: Capillary tube (Ostwald / Ubbelohde) method; for speed of sound: Sing-around technique in a fixed-path interferometer; for mass density: Vibrating tube method
[2] = refractive index (Na D-line) (dimensionless); mn = molality of the nth substance listed, in mol/kg; conditions: 86.8 kPa, Liquid, Standard Abbe refractometry

CC(=O)Oc1ccccc1C(=O)O [2-acetoxybenzoic acid] + CC#N
Conditions	mass density, [1] [kg/m3]	refractive index, [2]	speed of sound, [1] [m/s]	viscosity, [1] [mPa·s]
288.15 K, m1 = 0.0402	789.756 ± 0.17	1.3467 ± 0.004	1319.9 ± 1.2	0.394 ± 0.01
288.15 K, m1 = 0.0834	792.285 ± 0.16	1.3476 ± 0.004	1320.3 ± 1.2	0.398 ± 0.01
288.15 K, m1 = 0.11	793.822 ± 0.16	1.3483 ± 0.004	1320.6 ± 1.2	0.402 ± 0.01
288.15 K, m1 = 0.1394	795.495 ± 0.16	1.349 ± 0.004	1320.8 ± 1.2	0.405 ± 0.01
288.15 K, m1 = 0.1708	797.242 ± 0.16	1.3498 ± 0.004	1321.1 ± 1.2	0.408 ± 0.01
288.15 K, m1 = 0.2076	799.277 ± 0.16	1.3505 ± 0.004	1321.4 ± 1.2	0.412 ± 0.01
288.15 K, m1 = 0.2453	801.312 ± 0.16	1.3513 ± 0.004	1321.8 ± 1.2	0.416 ± 0.01
288.15 K, m1 = 0.2705	802.661 ± 0.16	1.3519 ± 0.004	1322 ± 1.2	0.419 ± 0.01
288.15 K, m1 = 0.3006	804.272 ± 0.16	1.3527 ± 0.004	1322.2 ± 1.2	0.422 ± 0.01
298.15 K, m1 = 0.0402	778.992 ± 0.17	1.3422 ± 0.004	1279.3 ± 1.2	0.349 ± 0.01
298.15 K, m1 = 0.0834	781.508 ± 0.17	1.3431 ± 0.004	1279.7 ± 1.2	0.353 ± 0.01
298.15 K, m1 = 0.11	783.035 ± 0.17	1.3439 ± 0.004	1279.9 ± 1.2	0.355 ± 0.01
298.15 K, m1 = 0.1394	784.705 ± 0.17	1.3446 ± 0.004	1280.2 ± 1.2	0.358 ± 0.01
298.15 K, m1 = 0.1708	786.446 ± 0.17	1.3453 ± 0.004	1280.4 ± 1.2	0.362 ± 0.01
298.15 K, m1 = 0.2076	788.483 ± 0.16	1.3462 ± 0.004	1280.7 ± 1.2	0.365 ± 0.01
298.15 K, m1 = 0.2453	790.515 ± 0.16	1.347 ± 0.004	1281 ± 1.2	0.369 ± 0.01
298.15 K, m1 = 0.2705	791.87 ± 0.16	1.3477 ± 0.004	1281.2 ± 1.2	0.371 ± 0.01
298.15 K, m1 = 0.3006	793.487 ± 0.16	1.3484 ± 0.004	1281.5 ± 1.2	0.375 ± 0.01
308.15 K, m1 = 0.0402	768.176 ± 0.17	1.3378 ± 0.004	1239 ± 1.2	0.316 ± 0.01
308.15 K, m1 = 0.0834	770.675 ± 0.17	1.3388 ± 0.004	1239.3 ± 1.2	0.319 ± 0.01
308.15 K, m1 = 0.11	772.198 ± 0.17	1.3397 ± 0.004	1239.5 ± 1.2	0.322 ± 0.01
308.15 K, m1 = 0.1394	773.857 ± 0.17	1.3404 ± 0.004	1239.7 ± 1.2	0.325 ± 0.01
308.15 K, m1 = 0.1708	775.597 ± 0.17	1.3412 ± 0.004	1240 ± 1.2	0.328 ± 0.01
308.15 K, m1 = 0.2076	777.624 ± 0.17	1.3423 ± 0.004	1240.3 ± 1.2	0.331 ± 0.01
308.15 K, m1 = 0.2453	779.658 ± 0.17	1.3431 ± 0.004	1240.5 ± 1.2	0.334 ± 0.01
308.15 K, m1 = 0.2705	781.016 ± 0.17	1.3438 ± 0.004	1240.8 ± 1.2	0.337 ± 0.01
308.15 K, m1 = 0.3006	782.624 ± 0.17	1.3446 ± 0.004	1241 ± 1.2	0.34 ± 0.01
318.15 K, m1 = 0.0402	757.205 ± 0.18	1.3333 ± 0.004	1198.8 ± 1.2	0.292 ± 0.01
318.15 K, m1 = 0.0834	759.697 ± 0.18	1.3345 ± 0.004	1199.2 ± 1.2	0.295 ± 0.01
318.15 K, m1 = 0.11	761.21 ± 0.18	1.3352 ± 0.004	1199.3 ± 1.2	0.297 ± 0.01
318.15 K, m1 = 0.1394	762.869 ± 0.18	1.3359 ± 0.004	1199.5 ± 1.2	0.3 ± 0.01
318.15 K, m1 = 0.1708	764.615 ± 0.17	1.3367 ± 0.004	1199.7 ± 1.2	0.303 ± 0.01
318.15 K, m1 = 0.2076	766.635 ± 0.17	1.3377 ± 0.004	1199.9 ± 1.2	0.306 ± 0.01
318.15 K, m1 = 0.2453	768.667 ± 0.17	1.3388 ± 0.004	1200.2 ± 1.2	0.309 ± 0.01
318.15 K, m1 = 0.2705	770.017 ± 0.17	1.3395 ± 0.004	1200.4 ± 1.2	0.311 ± 0.01
318.15 K, m1 = 0.3006	771.63 ± 0.17	1.3403 ± 0.004	1200.7 ± 1.2	0.314 ± 0.01
